Laboratory results reported in patent publication US10131652B2, “Pyrimidinyloxy benzene derivatives as herbicides” (E. I. DU PONT DE NEMOURS AND COMPANY, priority 2014, dated 2018).
Where two headings read alike, the source gives them in different places.

Assays:
Assay type in all cases: in vivo
[1] = system: oilseed rape (Brassica napus); test: Test D pre-/postemergence plant response; details: Brassica napus, pre-emergence; Preemergence; 62 g ai/ha; scale 0 to 100 (0 no effect, 100 complete control); read-out: Plant response rating, Oilseed Rape
Outline: (§1)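 Ratings were visual, 0 = no effect to 100 = complete control, taken against untreated controls after 13 to 15 days in a greenhouse. Chemicals, formulated in non-phytotoxic surfactant-containing solvent, went onto soil (loam/sand) at planting for preemergence, or onto 1- to 4-leaf plants (2–18 cm) for postemergence.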

[2] = system: yellow nutsedge (Cyperus esculentus); test: Test D pre-/postemergence plant response; details: Cyperus; for pest or weed control at 31 g/ha: 31 g ai/ha; for pest or weed control at 62 g/ha: 62 g ai/ha; for pest or weed control at 125 g/ha: 125 g ai/ha
Outline: as §1

[3] = system: ragweed (common ragweed, Ambrosia elatior); test: Test D pre-/postemergence plant response; details: Ambrosia artemisiifolia; for pest or weed control at 31 g/ha: 31 g ai/ha; for pest or weed control at 62 g/ha: 62 g ai/ha; for pest or weed control at 125 g/ha: 125 g ai/ha
Outline: as §1

[4] = system: wheat (Triticum aestivum); test: Test B pre-/postemergence plant response; details: Triticum aestivum, post-emergence, 240 h, read-out: Plant response rating, Wheat
Outline: (§2)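 Visual injury scores on a 0–100 scale (100 = complete control) relative to untreated plants, taken about 10 days post-treatment in greenhouse. Treatments were a directed preemergence soil spray and a postemergence spray at one- to two-leaf stage, using surfactant-containing solvent formulation.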

[5] = system: barnyardgrass (Echinochloa crus-galli); test: Test B pre-/postemergence plant response; details: for pest or weed control at 31 g/ha: 31 g ai/ha
Outline: as §2

[6] = system: pigweed (Amaranthus retroflexus); test: Test B pre-/postemergence plant response; details: for pest or weed control at 31 g/ha: 31 g ai/ha
Outline: as §2

[7] = system: corn (Zea mays); test: Test B pre-/postemergence plant response; details: Zea mays, post-emergence, 240 h
Outline: as §2

[8] = system: giant foxtail (Setaria faberii); test: Test B pre-/postemergence plant response; details: for pest or weed control at 31 g/ha: 31 g ai/ha
Outline: as §2

[9] = post-emergence, Postemergence, scale 0 to 100, 0 no effect, 100 complete control, read-out: Plant response rating, Nutsedge, Yellow
[10] = pre-emergence, Preemergence, scale 0 to 100 (0 no effect, 100 complete control), read-out: Plant response rating, Nutsedge, Yellow
[11] = post-emergence, Postemergence, scale 0 to 100, 0 no effect, 100 complete control, read-out: Plant response rating, Ragweed
[12] = pre-emergence, Preemergence, scale 0 to 100 (0 no effect, 100 complete control), read-out: Plant response rating, Ragweed
[13] = 125 g ai/ha, postemergence, 0 to 100 scale, 0 no effect, 100 complete control
[14] = Postemergence, 31 g ai/ha, 0 to 100 scale (0 no effect, 100 complete control)
[15] = Preemergence, 125 g ai/ha, 0 to 100 scale (0 no effect, 100 complete control)

Fc1cccc(Oc2ncc(Cl)cn2)c1-c1cc(C(F)F)no1 [Compound 144, 5-chloro-2-[2-[3-(difluoromethyl)-5-isoxazolyl]-3-fluorophenoxy]pyrimidine]
plant injury at 62 g/ha [1]: 100%
pest or weed control at 31 g/ha ([2]; post-emergence, Postemergence, scale 0 to 100 (0 no effect, 100 complete control), read-out: Nutsedge, Yellow plant response rating): 5%
pest or weed control at 62 g/ha [2, 9]: 5%
pest or weed control at 125 g/ha [2, 9]: 5%
pest or weed control at 125 g/ha ([2]; pre-emergence, Preemergence, read-out: Plant response rating (scale 0 to 100), Nutsedge, Yellow): 85%
pest or weed control at 16 g/ha ([2]; pre-emergence, Preemergence, 16 g ai/ha, scale 0 to 100 (0 no effect, 100 complete control), read-out: Plant response rating, Nutsedge, Yellow): 15%
pest or weed control at 31 g/ha [2, 10]: 30%
pest or weed control at 62 g/ha [2, 10]: 50%
pest or weed control at 31 g/ha ([3]; post-emergence, Postemergence, scale 0 to 100 (0 no effect, 100 complete control), read-out: Ragweed plant response rating): 60%
pest or weed control at 62 g/ha [3, 11]: 70%
pest or weed control at 125 g/ha [3, 11]: 75%
pest or weed control at 125 g/ha ([3]; pre-emergence, Preemergence, read-out: Plant response rating (scale 0 to 100), Ragweed): 100%
pest or weed control at 16 g/ha ([3]; pre-emergence, Preemergence, 16 g ai/ha, scale 0 to 100 (0 no effect, 100 complete control), read-out: Plant response rating, Ragweed): 75%
pest or weed control at 31 g/ha [3, 12]: 85%
pest or weed control at 62 g/ha [3, 12]: 100%
plant injury at 125 g/ha [4, 13]: 90%
plant injury at 31 g/ha [4, 14]: 30%
pest or weed control at 125 g/ha ([5]; Echinochloa crus-galli, post-emergence, 240 h, 125 g ai/ha, postemergence, 0 to 100 scale, 0 no effect, 100 complete control, read-out: Plant response rating, Barnyardgrass): 100%
pest or weed control at 31 g/ha ([5]; Echinochloa crus-galli, post-emergence, 240 h, Postemergence, 0 to 100 scale (0 no effect, 100 complete control), read-out: Plant response rating, Barnyardgrass): 30%
pest or weed control at 31 g/ha ([5]; Echinochloa crus-galli, pre-emergence, 240 h, Preemergence, 0 to 100 scale where 0 is no effect and 100 is complete control, read-out: Plant response rating, Barnyardgrass): 80%
Barnyardgrass plant response rating [5, 15]: 100
pest or weed control at 125 g/ha ([6]; Amaranthus retroflexus, post-emergence, 240 h, 125 g ai/ha, postemergence, 0 to 100 scale, 0 no effect, 100 complete control, read-out: Plant response rating, Pigweed): 100%
pest or weed control at 31 g/ha ([6]; Amaranthus retroflexus, post-emergence, 240 h, Postemergence, 0 to 100 scale (0 no effect, 100 complete control), read-out: Plant response rating, Pigweed): 100%
pest or weed control at 31 g/ha ([6]; Amaranthus retroflexus, pre-emergence, 240 h, Preemergence, 0 to 100 scale where 0 is no effect and 100 is complete control, read-out: Plant response rating, Pigweed): 100%
Pigweed plant response rating [6, 15]: 100
Corn plant response rating (crop injury, 0 = no effect, 100 = complete kill) at 125 g/ha [7, 13]: 90%
Corn plant response rating (crop injury, 0 = no effect, 100 = complete kill) at 31 g/ha [7, 14]: 30%
Foxtail, Giant plant response rating [8, 15]: 100
pest or weed control at 125 g/ha ([8]; Setaria faberi, post-emergence, 240 h, 125 g ai/ha, postemergence, 0 to 100 scale, 0 no effect, 100 complete control, read-out: Plant response rating, Foxtail, Giant): 100%
pest or weed control at 31 g/ha ([8]; Setaria faberi, post-emergence, 240 h, Postemergence, 0 to 100 scale (0 no effect, 100 complete control), read-out: Plant response rating, Foxtail, Giant): 80%
pest or weed control at 31 g/ha ([8]; Setaria faberi, pre-emergence, 240 h, Preemergence, 0 to 100 scale where 0 is no effect and 100 is complete control, read-out: Plant response rating, Foxtail, Giant): 100%
